pKd: −log10 of the molar value.
Tests used:
human ERα-LBD = target: T1, human ERα-LBD (Homo sapiens, UniProt P03372); assay: biochemical; format: binding
T1 sequence (P03372 304-554): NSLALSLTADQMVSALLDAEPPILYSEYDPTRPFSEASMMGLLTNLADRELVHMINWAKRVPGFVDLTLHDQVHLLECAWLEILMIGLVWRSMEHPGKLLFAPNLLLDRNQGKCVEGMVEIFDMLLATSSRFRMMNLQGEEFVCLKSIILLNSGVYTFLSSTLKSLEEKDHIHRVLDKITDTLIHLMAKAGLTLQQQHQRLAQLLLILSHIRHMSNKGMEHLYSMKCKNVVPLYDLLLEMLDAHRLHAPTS

human ERβ-LBD = human ERβ-LBD (Homo sapiens, UniProt Q92731); assay: Isothermal titration calorimetry; format: binding
Sequence of human ERβ-LBD (Q92731 264-498): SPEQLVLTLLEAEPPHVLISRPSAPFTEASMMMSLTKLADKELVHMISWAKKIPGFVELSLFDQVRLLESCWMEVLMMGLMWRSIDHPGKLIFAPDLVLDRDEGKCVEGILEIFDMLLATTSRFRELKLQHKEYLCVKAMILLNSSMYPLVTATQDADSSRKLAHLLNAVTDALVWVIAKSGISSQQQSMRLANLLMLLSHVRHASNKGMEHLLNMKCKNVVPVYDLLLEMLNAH

ERα [1] = conditions: ref ICCVAM [2003]; cited from earlier work
ERα [2] = conditions: cited from earlier work
[3] = ITC, 25 °C, one binding site model

For CCC(C)(c1ccc(O)cc1)c1ccc(O)cc1 [Bisphenol B], the pKd (human ERα-LBD) was 3.95 and the pKd (human ERβ-LBD) was 4.29.

In the case of C[C@]12CC[C@H]3[C@@H](CCC4=CC(=O)CC[C@@]43C)[C@@H]1CC[C@@H]2O [testosterone], the “ER binding in TG 493 (in words)” value (ERα [1]) is given as “may bind to the ER” and the “transcriptional response in TG 455 (in words)” value (ERα [2]; ref ICCVAM [2003]) is given as “fails to induce downstream transcriptional responses”.

For CC(C)C(=O)Nc1ccc([N+](=O)[O-])c(C(F)(F)F)c1 [Flutamide], the “Kd (ER α)” value (human ERα-LBD; [3]) is given as “no binding”, the “activity in previous TG 455 (in words)” value (ERα [2]; previous TG 455, ref Zacharia [2017]) is given as “no activity” and the “Kd (ER β)” value (human ERβ-LBD; [3]) is given as “no binding”.

CC(C)(C)CC(C)(C)c1ccc(O)cc1 [4-tert-Octylphenol] gave a pKd (human ERβ-LBD) of 4.80.
